In patent US12343352B2, “N-(phenylsulfonyl)benzamides and related compounds as Bcl-2 inhibitors” (ASCENTAGE PHARMA (SUZHOU) CO., LTD., priority 2019, dated 2025):

Assays:
[1] = Steady state pharmacokinetics in patients following multiple oral doses; type: in vivo; conditions: human, plasma, multiple oral doses of 400 mg once daily; for AUC(0-t): read-out: AUC(0-24 h); for half-life: read-out: T½ (converted)
[2] = tested on: CYP enzymes; assay: Comparative metabolism studies: metabolizing CYP enzymes and CYP inhibition/induction (liver microsome assays); type: in vitro ADME
Method: (§1) Metabolism studies of Compound 1 and Compound Z were evaluated in both mouse and dog liver microsome assays.

[3] = Mouse liver microsome assay / metabolites in mouse plasma; type: in vitro ADME
Method: as §1

[4] = Dog liver microsome assay / metabolites in dog plasma; type: in vitro ADME
Method: as §1

[5] = Pharmacokinetic properties of Compound 1 compared with Compound Z (systemic exposure and tumor tissues); type: in vivo; conditions: versus Compound Z
[6] = Metabolites in human plasma; type: in vivo

| Compound | Cmax [1] [ng/mL] | Tmax [1] [h] | AUC(0-t) [1] [ng·h/mL] | half-life [1] [h] | inhibition or induction of major CYP enzymes [2] | mainly metabolized by (CYP enzymes) ([2]; mouse, dog, microsomes) | major metabolite (>10%) in mouse plasma ([3]; mouse liver microsome assay) | metabolites found in dog plasma [4] | Cmax in systemic exposure relative to Compound Z ([5]; systemic exposure) | half-life in systemic exposure relative to Compound Z ([5]; systemic exposure) | Cmax in tumor tissues relative to Compound Z ([5]; tumor tissues) | half-life in tumor tissues relative to Compound Z ([5]; tumor tissues) | mainly metabolized by (CYP enzymes) ([2]; mouse and dog liver microsome assays) | other metabolites found in mouse plasma ([3]; mouse plasma) | major metabolite (>10%) in human plasma [6] |
| --- | --- | --- | --- | --- | --- | --- | --- | --- | --- | --- | --- | --- | --- | --- | --- |
| O=C(NS(=O)(=O)c1ccc(NC[C@H]2COCCO2)c([N+](=O)[O-])c1)c1ccc(N2CCN(CC3=C(c4ccc(Cl)cc4)CC4(CCC4)CC3)CC2)cc1Oc1cnc2[nH]ccc2c1 [Compound 1, (S)-N-((4-(((1,4-dioxan-2-yl)methyl)amino)-3-nitrophenyl)sulfonyl)-2-((1H-pyrrolo[2,3-b]pyridin-5-yl)oxy)-4-(4-((6-(4-chlorophenyl)spiro[3.5]non-6-en-7-yl)methyl)piperazin-1-yl)benzamide] | 970 | 6 | 9960 | 4.43 | not found to inhibit or induce any major CYP enzymes | CYP3A4 and CYP2C8 | amide bond hydrolysis M2 | minor oxidation metabolites | higher | shorter | higher | similar | – | – | – |
| CC1(C)CCC(CN2CCN(c3ccc(C(=O)NS(=O)(=O)c4ccc(NCC5CCOCC5)c([N+](=O)[O-])c4)c(Oc4cnc5[nH]ccc5c4)c3)CC2)=C(c2ccc(Cl)cc2)C1 [Compound Z, Venetoclax, reference compound] | 2180 | 7 | 35500 | 26 | – | – | – | minor oxidation metabolites | – | – | – | – | CYP3A4 and CYP3A5 | minor oxidation metabolites | oxidative metabolite M27 |
